Results on six compounds are retold here after patent US20200165257A1, “INHIBITORS OF PHOSPHOINOSITIDE 3-KINASE AND HISTONE DEACETYLASE FOR TREATMENT OF CANCER” (THE UNITED STATES OF AMERICA, AS REPRESENTED BY THE …, priority 2017, published 2020).

SMILES strings stand for the structures. Where two headings read alike, the source gives them in different places.

Test [1] deals with Leukemia Cell Line RPMI-8226. Format: cell-based. The note with it: Homo sapiens.
Test [2] concerns Breast Cancer Cell Line MDA-MB-468. The test can be described thus: cells. Particulars: Homo sapiens, MDA-MB-468, read-out: inhibition of proliferation.
The test system of test [3] is Leukemia Cell Line CCRF-CEM. Kind of test: cells. Format: cell-based. Particulars: Homo sapiens, read-out: inhibition of proliferation.
The next test deals with Leukemia Cell Line SR. The test can be described thus: cells. Particulars: Homo sapiens, read-out: inhibition of proliferation. In kind it is cell-based.
Test [4] concerns Breast Cancer Cell Line HS 578T. In kind it is cell-based. Particulars: Homo sapiens, read-out: inhibition of proliferation.
Test [5] relates to Leukemia Cell Line MOLT-4. In kind it is cell-based. Particulars: Homo sapiens.
For test [6], the system named is Ovarian Cell Line OVCAR-3. Kind of test: cells. Particulars: Homo sapiens, OVCAR-3, read-out: inhibition of proliferation.
The test system of test [7] is Ovarian Cell Line OVCAR-8. The test can be described thus: cells. In kind it is cell-based. Particulars: Homo sapiens, OVCAR-8, read-out: inhibition of proliferation.
Test [8] concerns Breast Cancer Cell Line BT-549. The test can be described thus: cells. Format: cell-based. The note with it: Homo sapiens, BT-549, read-out: inhibition of proliferation.
The subject of test [9] is Leukemia Cell Line HL-60(TB). In kind it is cell-based. Particulars: Homo sapiens.
Test [10] concerns Melanoma Cell Line UACC-62. The test can be described thus: cells. Format: cell-based. The note with it: Homo sapiens.
The subject of another test is Ovarian Cell Line IGROV1. Format: cell-based. The note with it: Homo sapiens.
Another test concerns the target PI3Kα (Homo sapiens, UniProt P42336). Kind of test: PI3Kα kinase assay (HTRF). In kind it is biochemical. How it is done: (§1) The PIP3 product is detected by displacement of biotin-PIP3 from an energy transfer complex consisting of Europium labeled anti-GST monoclonal antibody, a GST-tagged pleckstrin homology (PH) domain, biotinylated PIP3 and Streptavidin-Allophycocyanin (APC). […] The PIP3 product formed by PI 3-Kinase(h) activity displaces biotin-PIP3 from the complex resulting in a loss of energy transfer, and thus, a decrease in signal.
(§2) First, the kinase reaction with PIP2 substrate is carried out in the presence of ATP, and the reaction is quenched with stop Solution, and then, finally detect by adding Detection Mixture followed by incubation.
(§3) HEPES 50 mM (pH7.0), NaN3 0.02%, BSA 0.01%, Orthovanadate 0.1 mM, 1% DMSO.
(§4) Detection buffer: HEPES 10 mM (pH7.0), BSA 0.02%, KF 0.16 M, EDTA 4 mM.
(§5) 10 μM PIP2 substrate (PI(4,5)P2)
(§6) 10 μM ATP under standard conditions
(§7) 1. Prepare substrate in freshly prepared Reaction Buffer.
(§8) 2. Deliver kinase into the substrate solution and gently mix.
(§9) 3. Deliver compounds in 100% DMSO into the kinase reaction mixture by Acoustic technology (Echo550; nanoliter range), incubate for 10 min at room temperature.
(§10) 4. Deliver ATP into the reaction mixture to initiate the reaction.
(§11) 5. Incubate for 30 min at 30° C.
(§12) 6. Quench the reaction with Stop Solution.
(§13) 7. Add Detection Mixture, and incubate for overnight.
(§14) The emission ratio is converted into μM PIP3 production based on PIP3 standard curves.
(§15) The nonlinear regression to obtain the standard curve and IC50 values are performed using Graphpad Prism software.

For the next test, the target named is PI3Kβ (Homo sapiens, UniProt P42338). The test can be described thus: PI3Kβ kinase assay (HTRF). In kind it is biochemical. The protocol: as §1, §2, §3, §4, §5, §6, §7, §8, §9, §10, §11, §12, §13, §14, §15
In a further test the target is PI3Kδ (Homo sapiens, UniProt O00329). Kind of test: PI3Kδ kinase assay (HTRF). Format: biochemical. Particulars: for inhibition at 1 µM: symbols ** / *, read-out: PI3Kδ Inhibition Activity (% Inhibition class). The protocol: as §1, §2, §3, §4, §5, §6, §7, §8, §9, §10, §11, §12, §13, §14, §15
Another test addresses T1, HDAC6 (Homo sapiens, UniProt Q9UBN7).
T1 sequence (Q9UBN7 1-1215): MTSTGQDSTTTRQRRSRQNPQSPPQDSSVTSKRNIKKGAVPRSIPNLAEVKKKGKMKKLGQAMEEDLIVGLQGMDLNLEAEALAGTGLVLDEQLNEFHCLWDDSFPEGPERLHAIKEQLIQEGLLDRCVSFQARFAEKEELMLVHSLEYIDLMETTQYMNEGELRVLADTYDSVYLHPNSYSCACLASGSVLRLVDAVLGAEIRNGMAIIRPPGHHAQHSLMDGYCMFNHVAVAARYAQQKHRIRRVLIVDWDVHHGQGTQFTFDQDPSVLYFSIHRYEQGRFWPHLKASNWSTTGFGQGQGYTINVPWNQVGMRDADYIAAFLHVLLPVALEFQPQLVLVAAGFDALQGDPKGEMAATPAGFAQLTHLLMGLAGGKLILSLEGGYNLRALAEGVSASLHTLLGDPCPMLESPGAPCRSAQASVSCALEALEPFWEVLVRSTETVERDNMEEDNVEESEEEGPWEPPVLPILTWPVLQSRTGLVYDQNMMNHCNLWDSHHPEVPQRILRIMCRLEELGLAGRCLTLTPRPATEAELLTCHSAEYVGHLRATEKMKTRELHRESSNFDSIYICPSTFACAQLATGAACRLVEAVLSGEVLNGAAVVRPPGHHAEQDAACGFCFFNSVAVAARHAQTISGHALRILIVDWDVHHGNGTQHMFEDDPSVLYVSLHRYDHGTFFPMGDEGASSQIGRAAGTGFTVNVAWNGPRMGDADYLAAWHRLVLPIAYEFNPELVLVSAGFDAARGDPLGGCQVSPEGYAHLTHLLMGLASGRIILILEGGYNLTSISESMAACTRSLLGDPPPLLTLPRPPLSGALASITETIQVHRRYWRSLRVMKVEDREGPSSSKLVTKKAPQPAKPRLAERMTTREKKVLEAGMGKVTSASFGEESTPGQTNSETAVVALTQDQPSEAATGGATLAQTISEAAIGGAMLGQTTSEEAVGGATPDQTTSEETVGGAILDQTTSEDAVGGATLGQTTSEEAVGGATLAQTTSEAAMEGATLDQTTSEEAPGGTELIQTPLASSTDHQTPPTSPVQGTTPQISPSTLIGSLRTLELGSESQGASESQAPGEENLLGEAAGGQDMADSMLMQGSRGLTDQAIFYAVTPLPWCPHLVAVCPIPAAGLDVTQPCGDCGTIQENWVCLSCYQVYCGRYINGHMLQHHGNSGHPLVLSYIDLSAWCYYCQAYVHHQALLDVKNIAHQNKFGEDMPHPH
The test can be described thus: HDAC Fluorescent Activity Assay. Format: biochemical. Particulars: for inhibition at 1 µM: symbols ** / *, read-out: HDAC6 Inhibition Activity (% Inhibition class). The protocol: This protocol is to determine the IC50s or percentage of inhibition values of the test compound against HDACs.
The HDAC Fluorescent Activity Assay is based on the unique Fluorogenic Substrate and Developer combination. […] First, the Fluorogenic Substrate, which comprises an acetylated lysine side chain, is incubated with a purified HDAC enzyme. Deacetylation of the substrate sensitizes the substrate so that, in the second step, treatment with the Developer produces a fluorophore.
Testing compounds were dissolved in 100% DMSO to specific concentration. […]
1. Deliver 2× enzyme in wells of reaction plate except No Enzyme control wells. Add buffer in No En wells.
2. Deliver compounds in 100% DMSO into the enzyme mixture by Acoustic technology (Echo550; nanoliter range). Spin down and pre-incubation.
3. Deliver 2× Substrate Mixture (Fluorogenic HDAC Substrate and co-factor if applicable) in all reaction wells to initiate the reaction. Spin and shake.
4. Incubate for 1-2 hr at 30° C. with seal.
5. Add Developer with Trichostatin A (or TMP269) to stop the reaction and to generate fluorescent color.
6. Fluorescence was read (excitatory, 360; emission, 460) using the EnVision Multilabel
7. Take endpoint reading for analysis after the development reaches plateau.
The percentages of enzyme activity (relative to DMSO controls) and IC50 values were calculated using the GraphPad Prism 4 program based on a sigmoidal dose-response equation.

The target of the next test is PI3Kγ (Homo sapiens, UniProt P48736). Kind of test: PI3Kγ kinase assay (HTRF). Format: biochemical. The protocol: as §1, §2, §3, §4, §5, §6, §7, §8, §9, §10, §11, §12, §13, §14, §15
Setting [11] is: RPMI-8226, read-out: inhibition of proliferation.
Where [12] appears, read: MOLT-4, read-out: inhibition of proliferation.
Where [13] appears, read: HL-60, read-out: inhibition of proliferation.
Setting [14] is: UACC-62, read-out: inhibition of proliferation.
[15] abbreviates: IGROV-1, read-out: inhibition of proliferation.
Setting [16] is: HS 578T, single dose, 10 uM compound concentration.

Chain of PI3Kβ (P42338 whole entry): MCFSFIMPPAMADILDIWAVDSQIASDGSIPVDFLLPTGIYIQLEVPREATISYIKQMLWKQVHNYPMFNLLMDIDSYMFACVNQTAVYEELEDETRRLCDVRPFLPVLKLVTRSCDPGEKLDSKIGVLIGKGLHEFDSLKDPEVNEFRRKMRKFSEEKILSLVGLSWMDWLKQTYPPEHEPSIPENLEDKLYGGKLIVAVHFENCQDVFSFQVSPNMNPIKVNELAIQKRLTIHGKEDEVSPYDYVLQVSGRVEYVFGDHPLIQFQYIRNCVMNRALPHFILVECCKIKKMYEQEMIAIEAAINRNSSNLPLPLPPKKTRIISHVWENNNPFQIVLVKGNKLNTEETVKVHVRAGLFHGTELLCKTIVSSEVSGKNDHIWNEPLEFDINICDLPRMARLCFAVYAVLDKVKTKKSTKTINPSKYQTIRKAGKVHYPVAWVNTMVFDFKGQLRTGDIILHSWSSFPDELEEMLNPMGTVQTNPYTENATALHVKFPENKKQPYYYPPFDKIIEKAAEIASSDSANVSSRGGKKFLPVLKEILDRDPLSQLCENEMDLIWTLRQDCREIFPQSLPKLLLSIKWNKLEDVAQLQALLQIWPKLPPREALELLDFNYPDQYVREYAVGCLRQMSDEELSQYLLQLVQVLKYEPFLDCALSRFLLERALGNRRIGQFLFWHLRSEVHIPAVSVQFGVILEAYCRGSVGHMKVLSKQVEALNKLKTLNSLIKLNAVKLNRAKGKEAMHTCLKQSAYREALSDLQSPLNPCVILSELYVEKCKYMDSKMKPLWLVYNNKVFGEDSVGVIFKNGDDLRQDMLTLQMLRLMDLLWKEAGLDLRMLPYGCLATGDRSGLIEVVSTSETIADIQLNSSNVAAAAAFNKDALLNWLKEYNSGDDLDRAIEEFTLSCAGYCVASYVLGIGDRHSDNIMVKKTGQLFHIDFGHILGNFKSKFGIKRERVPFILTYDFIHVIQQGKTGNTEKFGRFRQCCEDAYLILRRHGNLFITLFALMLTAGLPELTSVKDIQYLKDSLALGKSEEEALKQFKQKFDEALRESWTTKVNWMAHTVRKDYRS
Chain of PI3Kβ (P27986 whole entry partner): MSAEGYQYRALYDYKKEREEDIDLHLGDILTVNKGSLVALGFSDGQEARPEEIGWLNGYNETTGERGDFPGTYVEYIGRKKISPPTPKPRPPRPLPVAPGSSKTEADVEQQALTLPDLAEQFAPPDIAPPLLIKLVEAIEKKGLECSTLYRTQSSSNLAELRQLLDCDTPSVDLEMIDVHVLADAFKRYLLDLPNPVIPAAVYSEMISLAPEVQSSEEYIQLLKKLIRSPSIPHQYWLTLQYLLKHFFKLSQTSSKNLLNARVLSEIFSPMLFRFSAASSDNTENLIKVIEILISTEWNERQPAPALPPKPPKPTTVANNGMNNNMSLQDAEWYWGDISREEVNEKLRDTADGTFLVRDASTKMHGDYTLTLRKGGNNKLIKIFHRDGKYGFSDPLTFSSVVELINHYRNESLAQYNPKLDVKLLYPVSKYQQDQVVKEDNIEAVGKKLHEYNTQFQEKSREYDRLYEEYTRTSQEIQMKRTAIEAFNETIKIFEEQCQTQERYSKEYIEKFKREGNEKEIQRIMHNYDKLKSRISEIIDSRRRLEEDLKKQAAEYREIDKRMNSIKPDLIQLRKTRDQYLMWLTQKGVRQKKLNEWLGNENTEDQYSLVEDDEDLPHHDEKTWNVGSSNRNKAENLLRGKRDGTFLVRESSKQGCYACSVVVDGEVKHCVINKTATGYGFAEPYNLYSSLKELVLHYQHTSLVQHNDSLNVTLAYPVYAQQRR
Chain of PI3Kγ (P48736 whole entry): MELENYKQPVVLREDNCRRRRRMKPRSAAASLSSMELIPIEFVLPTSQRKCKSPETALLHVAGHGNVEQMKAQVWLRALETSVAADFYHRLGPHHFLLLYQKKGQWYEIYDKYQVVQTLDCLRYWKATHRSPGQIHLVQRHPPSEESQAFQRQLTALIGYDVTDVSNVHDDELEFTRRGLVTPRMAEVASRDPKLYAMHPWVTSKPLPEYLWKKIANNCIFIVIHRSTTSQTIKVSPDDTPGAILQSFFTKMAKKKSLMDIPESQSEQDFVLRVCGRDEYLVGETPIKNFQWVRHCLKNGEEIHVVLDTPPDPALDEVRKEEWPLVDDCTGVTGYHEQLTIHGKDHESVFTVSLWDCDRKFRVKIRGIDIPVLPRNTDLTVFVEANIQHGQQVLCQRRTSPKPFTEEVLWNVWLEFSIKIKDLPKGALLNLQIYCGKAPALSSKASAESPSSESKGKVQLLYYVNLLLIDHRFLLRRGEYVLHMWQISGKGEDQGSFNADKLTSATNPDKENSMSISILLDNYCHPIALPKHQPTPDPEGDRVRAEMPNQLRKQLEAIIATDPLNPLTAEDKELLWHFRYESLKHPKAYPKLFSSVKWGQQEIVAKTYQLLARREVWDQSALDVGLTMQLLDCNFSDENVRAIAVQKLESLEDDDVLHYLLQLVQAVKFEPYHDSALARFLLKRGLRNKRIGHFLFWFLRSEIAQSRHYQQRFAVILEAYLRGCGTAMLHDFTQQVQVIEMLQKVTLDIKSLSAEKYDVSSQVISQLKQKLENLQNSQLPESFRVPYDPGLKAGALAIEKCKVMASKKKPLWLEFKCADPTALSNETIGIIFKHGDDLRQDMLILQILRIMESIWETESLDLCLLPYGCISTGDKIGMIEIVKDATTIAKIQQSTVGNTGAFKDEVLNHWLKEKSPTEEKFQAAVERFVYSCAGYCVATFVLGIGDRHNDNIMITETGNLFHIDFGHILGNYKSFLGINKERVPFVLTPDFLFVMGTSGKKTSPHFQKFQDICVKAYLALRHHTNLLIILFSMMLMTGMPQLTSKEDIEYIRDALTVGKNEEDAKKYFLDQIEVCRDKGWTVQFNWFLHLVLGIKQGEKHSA
Chain of PI3Kα (P42336 whole entry): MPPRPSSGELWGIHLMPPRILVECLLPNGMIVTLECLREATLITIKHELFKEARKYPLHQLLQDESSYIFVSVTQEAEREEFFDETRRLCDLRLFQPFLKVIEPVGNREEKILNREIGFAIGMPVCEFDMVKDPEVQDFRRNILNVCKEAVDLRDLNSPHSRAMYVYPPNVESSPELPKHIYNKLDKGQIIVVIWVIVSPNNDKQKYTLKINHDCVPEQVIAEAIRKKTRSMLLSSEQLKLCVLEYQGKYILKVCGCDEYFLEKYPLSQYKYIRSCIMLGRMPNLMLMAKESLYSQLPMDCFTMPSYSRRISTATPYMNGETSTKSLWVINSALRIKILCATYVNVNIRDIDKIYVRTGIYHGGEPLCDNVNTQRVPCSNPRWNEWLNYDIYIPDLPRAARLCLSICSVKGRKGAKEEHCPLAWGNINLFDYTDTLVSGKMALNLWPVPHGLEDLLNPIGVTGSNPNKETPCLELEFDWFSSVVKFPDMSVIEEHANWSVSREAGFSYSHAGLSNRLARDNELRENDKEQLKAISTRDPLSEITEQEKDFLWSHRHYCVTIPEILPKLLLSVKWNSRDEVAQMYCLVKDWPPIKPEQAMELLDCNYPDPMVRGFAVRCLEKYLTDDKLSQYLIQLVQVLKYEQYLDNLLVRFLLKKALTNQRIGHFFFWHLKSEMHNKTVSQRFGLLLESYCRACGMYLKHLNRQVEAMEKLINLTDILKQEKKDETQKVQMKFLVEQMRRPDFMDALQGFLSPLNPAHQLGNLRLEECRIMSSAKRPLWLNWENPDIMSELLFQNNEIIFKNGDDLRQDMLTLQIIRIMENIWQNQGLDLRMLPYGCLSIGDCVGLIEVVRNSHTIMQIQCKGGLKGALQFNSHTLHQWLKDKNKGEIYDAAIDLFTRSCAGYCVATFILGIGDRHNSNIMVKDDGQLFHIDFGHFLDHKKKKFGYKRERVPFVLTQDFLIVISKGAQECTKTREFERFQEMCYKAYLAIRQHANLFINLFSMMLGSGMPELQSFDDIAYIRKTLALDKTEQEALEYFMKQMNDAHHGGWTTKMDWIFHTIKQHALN
Chain of PI3Kα (P27986 whole entry partner): as the sequence (P27986 whole entry partner) above
Chain of PI3Kδ (O00329 whole entry): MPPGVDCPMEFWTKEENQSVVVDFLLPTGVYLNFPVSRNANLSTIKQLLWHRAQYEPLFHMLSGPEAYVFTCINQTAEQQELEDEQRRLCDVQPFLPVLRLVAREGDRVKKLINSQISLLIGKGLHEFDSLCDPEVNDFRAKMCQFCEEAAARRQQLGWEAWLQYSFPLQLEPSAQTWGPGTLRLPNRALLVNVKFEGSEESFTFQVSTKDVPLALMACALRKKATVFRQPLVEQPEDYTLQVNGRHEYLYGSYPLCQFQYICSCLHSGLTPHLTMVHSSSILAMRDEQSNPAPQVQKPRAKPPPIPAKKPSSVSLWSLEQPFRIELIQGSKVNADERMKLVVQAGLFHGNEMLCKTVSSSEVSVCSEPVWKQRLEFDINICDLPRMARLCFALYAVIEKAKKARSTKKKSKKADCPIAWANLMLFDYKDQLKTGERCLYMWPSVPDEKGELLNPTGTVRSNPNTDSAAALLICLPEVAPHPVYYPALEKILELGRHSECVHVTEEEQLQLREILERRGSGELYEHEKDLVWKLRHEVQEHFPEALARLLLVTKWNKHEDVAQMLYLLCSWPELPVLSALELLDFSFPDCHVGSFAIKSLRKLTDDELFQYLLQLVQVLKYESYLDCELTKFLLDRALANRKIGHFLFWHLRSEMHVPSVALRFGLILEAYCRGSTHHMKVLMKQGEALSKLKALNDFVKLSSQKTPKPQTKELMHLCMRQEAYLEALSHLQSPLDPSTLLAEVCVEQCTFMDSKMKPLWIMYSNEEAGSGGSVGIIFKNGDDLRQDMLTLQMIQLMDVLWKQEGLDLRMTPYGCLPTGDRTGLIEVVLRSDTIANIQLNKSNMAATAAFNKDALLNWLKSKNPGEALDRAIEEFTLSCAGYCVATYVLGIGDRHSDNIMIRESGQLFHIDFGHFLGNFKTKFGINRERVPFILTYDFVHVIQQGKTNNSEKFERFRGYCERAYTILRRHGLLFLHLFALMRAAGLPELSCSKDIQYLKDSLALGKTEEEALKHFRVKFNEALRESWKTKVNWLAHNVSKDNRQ
Chain of PI3Kδ (P27986 whole entry partner): as the sequence (P27986 whole entry partner) above

In the case of `CC[C@H](Nc1ncnc2[nH]cnc12)c1nc2cccc(CCCCC(=O)NO)c2c(=O)n1-c1ccccc1` [XII, (S)-5-(2-(1-((9H-purin-6-yl)amino)propyl)-4-oxo-3-phenyl-3,4-dihydroquinazolin-5-yl)-N-hydroxypentanamide], the inhibition at 10 µM in test [1] (setting [11]) was above 50%; in test [2] it was 25 to 50%; in test [3] it was 25 to 50%; in the test with Leukemia Cell Line SR, above 50%; in test [4] (Hs-578T), 25 to 50%; in test [5] (setting [12]) it was 25 to 50%.
For `CC[C@H](Nc1cc(C)nc(N)n1)c1nc2cccc(NCc3ccc(C(=O)NO)cc3)c2c(=O)n1-c1ccccc1` [XLI, (S)-4-(((2-(1-((2-amino-6-methylpyrimidin-4-yl)amino)propyl)-4-oxo-3-phenyl-3,4-dihydroquinazolin-5-yl)amino)methyl)-N-hydroxybenzamide], the inhibition at 10 µM in [1] (setting [11]), in [6], in test [7], in test [2], in test [8] and in test [3] was above 50% each time. In addition, the inhibition at 10 µM (in [9] (setting [13]); in [4] (Hs-578T); in [5] (setting [12]); in [10] (setting [14]); in the test on Ovarian Cell Line IGROV1 (setting [15])) was above 50% throughout.
For the compound `CC[C@H](Nc1ncnc2[nH]cnc12)c1nc2cccc(CC(=O)c3ccc(C(=O)NO)cc3)c2c(=O)n1-c1ccccc1` [Compound I, (S)-4-(2-(2-(1-((9H-purin-6-yl)amino)propyl)-4-oxo-3-phenyl-3,4-dihydroquinazolin-5-yl)acetyl)-N-hydroxybenzamide], the inhibition at 10 µM was above 50% in [1] (RPMI-8226, single dose, 10 uM compound concentration, read-out: inhibition of proliferation); 25 to 50% in test [2]; 25 to 50% in the test with Leukemia Cell Line SR (SR, single dose, 10 uM compound concentration); 25 to 50% in [4] (setting [16]); 25 to 50% in test [5] (MOLT-4, single dose, 10 uM compound concentration, read-out: inhibition of proliferation). The inhibition at 1 µM against PI3Kα is below 85%; against PI3Kβ, below 85%; at PI3Kδ, above 90%; at HDAC6, above 90%; on PI3Kγ, below 85%.
Consider `CC[C@H](Nc1ncnc2[nH]cnc12)c1nc2cccc(CCCCNC(=O)NO)c2c(=O)n1-c1ccccc1` [Compound XXIV], for which the figures for the inhibition at 1 µM at PI3Kα, at PI3Kβ and against PI3Kγ were below 85%, below 85% and 91%, respectively. Moreover, the inhibition at 10 µM is 25 to 50% in test [2]; 25 to 50% in test [8]; 25 to 50% in test [3]; 25 to 50% with Leukemia Cell Line SR; above 50% in test [9] (setting [13]); 25 to 50% in test [4] (Hs-578T). Moreover, the inhibition at 10 µM in [10] (setting [14]) was 25 to 50%; in the test on Ovarian Cell Line IGROV1 (setting [15]), above 50%. The half-maximal inhibitory concentration (IC50) is below 100 nM on PI3Kδ (symbols ++ / +, read-out: PI3Kδ Inhibition Activity (IC50 class)) and above 100 nM at HDAC6 (symbols ++ / +, read-out: HDAC6 Inhibition Activity (IC50 class)).
Take `CC[C@H](Nc1nc(N)nc(C)c1C#N)c1nc2cccc(N3CCC(CC(=O)NO)CC3)c2c(=O)n1-c1ccccc1` [XLIX, (S)-2-(1-(2-(1-((2-amino-5-cyano-6-methylpyrimidin-4-yl)amino)propyl)-4-oxo-3-phenyl-3,4-dihydroquinazolin-5-yl)piperidin-4-yl)-N-hydroxyacetamide]: the inhibition at 10 µM in test [2] was 25 to 50%; in test [3] (single dose, 10 uM compound concentration), 25 to 50%; in [9] (HL-60(TB), single dose, 10 uM compound concentration, read-out: inhibition of proliferation), 25 to 50%; in test [4] (setting [16]) it was 25 to 50%; in [10] (UACC-62, single dose, 10 uM compound concentration, read-out: inhibition of proliferation) it was 25 to 50%; with Ovarian Cell Line IGROV1 (IGROV-1, IGROV1, single dose, 10 uM compound concentration, read-out: inhibition of proliferation) it was 25 to 50%. In addition, the inhibition at 1 µM is above 90% on PI3Kδ and below 90% on HDAC6.
Take `CC[C@H](Nc1ncnc2[nH]cnc12)c1nc(N2CCN(c3nc(C(=O)NO)cs3)CC2)c2ccccc2n1` [XXXII, (S)-2-(4-(2-(1-((9H-purin-6-yl)amino)propyl)quinazolin-4-yl)piperazin-1-yl)-N-hydroxythiazole-4-carboxamide]: the inhibition at 1 µM against PI3Kα was below 85%; against PI3Kβ, below 85%; on PI3Kδ, below 90%; at HDAC6, below 90%; on PI3Kγ, below 85%.
